Laboratory results taken from ChEMBL document CHEMBL1201862, “PubChem BioAssay data set” (2004).
Active and inactive are the calls of the source.

Legend:
Galanin receptor type 3 = target: T1, Galanin receptor type 3 (Homo sapiens, UniProt O60755); assay: Fluorescence-based cell-based primary high throughput dose response assay to identify antagonists of the Galanin Receptor 3 (GalR3).; assay type: functional
T1 sequence (O60755 whole entry): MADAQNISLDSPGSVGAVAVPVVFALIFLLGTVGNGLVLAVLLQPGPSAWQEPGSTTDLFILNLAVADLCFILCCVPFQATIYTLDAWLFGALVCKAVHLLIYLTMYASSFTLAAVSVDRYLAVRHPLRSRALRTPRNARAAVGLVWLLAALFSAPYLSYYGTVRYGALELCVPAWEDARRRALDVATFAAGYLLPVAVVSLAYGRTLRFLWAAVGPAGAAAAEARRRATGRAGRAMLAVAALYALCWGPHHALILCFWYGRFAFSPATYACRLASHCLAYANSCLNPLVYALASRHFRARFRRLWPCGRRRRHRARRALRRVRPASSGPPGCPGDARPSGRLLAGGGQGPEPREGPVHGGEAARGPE

[1] = Luminescence Cell-Based Dose Response HTS to Identify Inhibitors of 5'UTR Stem-Loop Driven Prion Protein mRNA Translation in H4 Neuroglioblastoma Cells. [Related pubchem assays: 1827 (Project Summary), 1813 (Primary HTS)]; assay type: functional
cells [2] = assay type: functional, cell-based; conditions: HEK-CNG
[3] = inhibitors of firefly luciferase expression or activity, dose response, H4 neuroglioma cells, luminescence (AID 1990); assay type: functional, cell-based
[4] = Luminescence Cell-Based Dose Retest to Confirm Inhibitors of Cancer Stem Cells. [Related pubchem assays (depositor defined):AID2717, AID2721]; assay type: functional; conditions: Homo sapiens
[5] = inhibitors of SNCA 5'UTR-driven reporter translation, confirmation, H4 neuroglioma cells, luminescence (AID 1988); assay type: functional, cell-based
Vero = assay: host cell cytotoxicity of antiviral hits, dose response, cytotoxicity control for West Nile virus antiviral project, secondary assay (AID 1650); assay type: functional; conditions: Chlorocebus sabaeus
[6] = A Cell Based Secondary Assay To Explore Cytotoxicity of Compounds that Sensitize Mycobacterium Tuberculosis to Beta-Lactam Antibiotics.; assay type: functional
[7] = inhibitors of intracellular T. cruzi replication, confirmation, NIH3T3 host cells, beta-gal luminescence (AID 2044); assay type: functional, cell-based;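 note: intracellular parasites grown in NIH/3T3 mouse fibroblasts as host cells; luminescent beta-galactosidase reporter signal from transgenic T. cruzi replicating inside host cells; inhibitors lower the luminescence signal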
[8] = cytotoxicity toward NIH3T3 fibroblasts, dose response, counter-screen, cell-based, ATP luminescence, mouse fibroblasts (AID 2010); assay type: functional;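 note: cells exposed to compound for about 90 hours before reading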
[9] = A cytotoxicity screen of small molecule inhibitors of the PhoP region in Salmonella typhi identified in the primary screen. [Related pubchem assays: 1850, 1864, 1985 ]; assay type: functional
cells [10] = assay: cells
[11] = target: T2, RNA-editing ligase 1, mitochondrial (Trypanosoma brucei brucei, UniProt P86926); assay: TbREL1 ligase inhibitors, dose response, biochemical, fluorescence, Trypanosoma brucei (AID 1117295); assay type: functional
T2 sequence (P86926 whole entry): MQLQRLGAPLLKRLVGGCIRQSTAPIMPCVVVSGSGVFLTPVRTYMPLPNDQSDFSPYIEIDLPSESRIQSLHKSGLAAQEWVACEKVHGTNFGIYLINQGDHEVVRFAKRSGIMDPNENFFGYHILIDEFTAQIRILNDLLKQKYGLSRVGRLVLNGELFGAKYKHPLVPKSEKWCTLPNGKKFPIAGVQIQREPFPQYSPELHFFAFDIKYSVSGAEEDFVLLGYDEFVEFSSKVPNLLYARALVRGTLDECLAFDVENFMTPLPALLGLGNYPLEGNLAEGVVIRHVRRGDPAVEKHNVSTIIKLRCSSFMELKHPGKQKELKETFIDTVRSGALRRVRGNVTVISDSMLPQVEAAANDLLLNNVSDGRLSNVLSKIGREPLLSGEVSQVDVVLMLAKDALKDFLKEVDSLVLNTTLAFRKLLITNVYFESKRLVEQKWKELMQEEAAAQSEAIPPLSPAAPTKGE

[12] = HEp-2 cell cytotoxicity, dose response, cytotoxicity control for RSV inhibitor project, HTS (AID 2410); assay type: functional; conditions: human respiratory syncytial virus
[13] = target: Induced myeloid leukemia cell differentiation protein Mcl-1 (Homo sapiens, UniProt Q07820); assay type: functional
Chain of Induced myeloid leukemia cell differentiation protein Mcl-1 (Q07820 whole entry, the tested form may be a part): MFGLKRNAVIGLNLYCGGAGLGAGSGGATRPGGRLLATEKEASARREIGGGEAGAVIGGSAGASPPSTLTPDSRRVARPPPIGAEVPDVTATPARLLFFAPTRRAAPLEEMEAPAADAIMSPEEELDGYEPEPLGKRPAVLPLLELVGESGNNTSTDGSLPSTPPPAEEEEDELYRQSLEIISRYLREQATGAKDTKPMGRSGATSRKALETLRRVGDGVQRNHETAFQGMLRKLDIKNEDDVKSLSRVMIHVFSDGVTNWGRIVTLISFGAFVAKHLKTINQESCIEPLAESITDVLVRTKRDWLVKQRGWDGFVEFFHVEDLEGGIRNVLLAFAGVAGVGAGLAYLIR

[14] = target: T3, RNA-binding protein pos-1 (Caenorhabditis elegans, UniProt G5EF15); assay: inhibitors of POS-1/mex-3 RNA binding, dose response, biochemical, fluorescence polarization (AID 1964);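 note: purified POS-1 fused to maltose binding protein made in E. coli; potency of compounds blocking POS-1 binding to fluorescent RNA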
T3 sequence (G5EF15 whole entry): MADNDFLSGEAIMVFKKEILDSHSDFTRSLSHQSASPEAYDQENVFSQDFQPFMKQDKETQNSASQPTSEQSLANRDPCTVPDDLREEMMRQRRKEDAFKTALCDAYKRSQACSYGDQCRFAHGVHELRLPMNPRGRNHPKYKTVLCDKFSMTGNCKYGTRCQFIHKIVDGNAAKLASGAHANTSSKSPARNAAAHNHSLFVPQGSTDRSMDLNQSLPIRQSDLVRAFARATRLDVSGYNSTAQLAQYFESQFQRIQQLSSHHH

[15] = target: T4, Zinc finger protein mex-5 (Caenorhabditis elegans, UniProt Q9XUB2); assay: MEX-5/TCR-2 RNA interaction inhibitors, dose response, biochemical, C. elegans, fluorescence polarization (AID 1960)
T4 sequence (Q9XUB2 whole entry): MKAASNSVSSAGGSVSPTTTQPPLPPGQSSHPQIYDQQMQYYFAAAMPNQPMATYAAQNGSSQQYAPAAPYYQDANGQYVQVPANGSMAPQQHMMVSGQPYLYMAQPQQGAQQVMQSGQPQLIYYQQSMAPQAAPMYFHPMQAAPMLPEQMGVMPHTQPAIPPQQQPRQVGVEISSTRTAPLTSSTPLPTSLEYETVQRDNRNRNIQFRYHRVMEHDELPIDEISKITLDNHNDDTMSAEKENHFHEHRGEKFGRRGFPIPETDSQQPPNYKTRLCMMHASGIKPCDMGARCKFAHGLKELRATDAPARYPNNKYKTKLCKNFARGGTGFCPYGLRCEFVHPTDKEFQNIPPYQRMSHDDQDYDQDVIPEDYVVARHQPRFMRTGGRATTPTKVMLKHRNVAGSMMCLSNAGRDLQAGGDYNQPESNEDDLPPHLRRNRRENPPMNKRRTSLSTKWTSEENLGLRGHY

[16] = inhibitors of Vif binding to APOBEC3G peptide, primary screen, biochemical, TR-FRET, GST-Vif 1-94, biotin-A3G peptide, dose response retest (AID 1117319); assay type: functional;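 note: TR-FRET signal of purified GST-Vif binding a biotinylated A3G peptide; inhibitors lower the FRET signal by blocking Vif and A3G binding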
Aminopeptidase N = target: T5, Aminopeptidase N (Plasmodium falciparum FcB1/Columbia, UniProt O96935); assay: P. falciparum M1AAP inhibitors, biochemical, fluorogenic H-Leu-NHMec substrate, 1536-well (AID 1445); parameters: species or system Plasmodium falciparum 3D7, 3D7
T5 sequence (O96935 whole entry): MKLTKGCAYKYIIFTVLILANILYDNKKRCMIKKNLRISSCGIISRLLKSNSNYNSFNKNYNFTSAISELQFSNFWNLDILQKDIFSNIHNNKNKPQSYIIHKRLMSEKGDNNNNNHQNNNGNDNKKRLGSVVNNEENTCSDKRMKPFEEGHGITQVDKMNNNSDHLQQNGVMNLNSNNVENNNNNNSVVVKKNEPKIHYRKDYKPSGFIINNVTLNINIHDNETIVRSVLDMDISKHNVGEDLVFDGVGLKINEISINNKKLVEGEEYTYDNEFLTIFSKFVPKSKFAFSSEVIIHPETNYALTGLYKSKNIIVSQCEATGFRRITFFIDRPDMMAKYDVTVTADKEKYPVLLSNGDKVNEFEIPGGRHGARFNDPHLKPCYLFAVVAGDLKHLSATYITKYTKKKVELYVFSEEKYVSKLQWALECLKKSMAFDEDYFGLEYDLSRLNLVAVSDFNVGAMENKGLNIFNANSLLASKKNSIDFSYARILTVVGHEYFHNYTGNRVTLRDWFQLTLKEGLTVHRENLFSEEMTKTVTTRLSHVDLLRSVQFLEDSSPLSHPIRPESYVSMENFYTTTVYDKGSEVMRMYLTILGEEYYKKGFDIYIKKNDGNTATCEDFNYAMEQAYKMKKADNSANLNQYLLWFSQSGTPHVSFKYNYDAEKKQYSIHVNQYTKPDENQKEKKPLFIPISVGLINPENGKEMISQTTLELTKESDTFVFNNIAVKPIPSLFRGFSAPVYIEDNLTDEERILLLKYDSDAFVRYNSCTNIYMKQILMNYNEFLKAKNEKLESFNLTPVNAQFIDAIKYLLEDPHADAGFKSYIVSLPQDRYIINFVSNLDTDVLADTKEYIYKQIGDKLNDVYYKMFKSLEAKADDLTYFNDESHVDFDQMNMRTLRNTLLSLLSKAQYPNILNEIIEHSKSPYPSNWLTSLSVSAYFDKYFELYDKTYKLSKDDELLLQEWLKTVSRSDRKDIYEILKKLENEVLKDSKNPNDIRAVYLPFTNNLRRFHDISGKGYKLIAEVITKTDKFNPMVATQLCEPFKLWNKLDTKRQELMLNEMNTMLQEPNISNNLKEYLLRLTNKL

[17] = target: FAD-linked sulfhydryl oxidase ALR (Homo sapiens, UniProt P55789); assay: inhibitors of human ALR sulfhydryl oxidase, dose response, biochemical, H2O2 detection, luminescence, cherry-pick (AID 493248)
Chain of FAD-linked sulfhydryl oxidase ALR (P55789 whole entry): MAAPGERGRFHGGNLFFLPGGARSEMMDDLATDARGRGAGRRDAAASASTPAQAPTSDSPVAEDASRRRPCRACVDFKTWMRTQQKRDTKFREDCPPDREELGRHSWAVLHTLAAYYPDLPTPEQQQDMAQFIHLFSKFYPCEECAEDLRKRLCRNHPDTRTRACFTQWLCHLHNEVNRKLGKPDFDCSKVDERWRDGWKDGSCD

Protein Tat = target: T6, Protein Tat (Human immunodeficiency virus type 1 group M subtype B (isolate HXB2)(HIV-1), UniProt P04608); assay type: functional;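 note: tat binding to TAR RNA read out by fluorescence polarization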
T6 sequence (P04608 whole entry): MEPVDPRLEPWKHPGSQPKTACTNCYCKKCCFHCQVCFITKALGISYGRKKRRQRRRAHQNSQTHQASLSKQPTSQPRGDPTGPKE

[18] = cytotoxicity in HEK-293T cells, dose response, cytotoxicity control for TCR NF-kB inhibitor project, luminescence, T-cell screen hits (AID 489026); assay type: functional, cell-based;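 note: cells exposed to compound about 14 hours before the viability readout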
[19] = target: T7, COUP transcription factor 2 (Homo sapiens, UniProt P24468); assay: Luminescence-based cell-based high throughput dose response assay to identify inhibitors of COUP-TFII (NR2F2).; assay type: functional;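 note: HEK293 cells transiently cotransfected with COUP-TFII expression vector and reporter; luciferase reporter luminescence driven by COUP-TFII from the pX2-168 reporter plasmid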
T7 sequence (P24468 whole entry): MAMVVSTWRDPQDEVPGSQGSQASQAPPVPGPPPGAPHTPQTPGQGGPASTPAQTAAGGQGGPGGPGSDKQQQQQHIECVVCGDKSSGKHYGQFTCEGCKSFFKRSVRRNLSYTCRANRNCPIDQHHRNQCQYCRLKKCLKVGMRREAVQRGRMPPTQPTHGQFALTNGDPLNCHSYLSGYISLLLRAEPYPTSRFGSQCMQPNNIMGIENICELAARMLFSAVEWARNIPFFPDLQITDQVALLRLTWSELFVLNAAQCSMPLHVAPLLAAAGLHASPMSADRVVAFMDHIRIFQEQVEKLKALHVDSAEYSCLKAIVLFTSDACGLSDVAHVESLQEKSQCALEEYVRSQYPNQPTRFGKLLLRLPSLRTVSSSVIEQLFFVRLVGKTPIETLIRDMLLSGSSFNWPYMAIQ

[20] = Shn3 3'UTR reporter inhibitors, dose response, cell-based, Clone20 osteoblasts, firefly luciferase, cherry-picked (AID 624132); assay type: functional;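 note: firefly luciferase luminescence from reporter carrying the Shn3 3'UTR in osteoblasts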
[21] = control 3'UTR Renilla luciferase suppression, dose response, counter-screen for Shn3 inhibitor project, cell-based, Clone20-Shn3RL, cherry-picked (AID 624133); assay type: functional
[22] = HepG2 cell cytotoxicity, dose response, cytotoxicity control for Shn3 inhibitor project, CellTiter-Glo, cherry-picked (AID 624134); assay type: functional, cell-based

## C[C@]12CC[C@H]3C(CCC4(O)CC(O)CC[C@]34C=O)C1=CC[C@H]2c1ccc(=O)oc1 (some centres undefined)
Galanin receptor type 3
  IC50: > 29.9 µM (inactive)
[1]
  EC50: 5.93 µM (active)
Cells [2]
  EC50: > 29.9 µM (inactive)
[3]
  EC50: 6.93 µM (active)
[4]
  AC50: 3.49 µM (active)
[5]
  EC50: 1.62 µM (active)
Vero
  CC50: 20.5 µM (active)

## O=C(Nc1cccc(C(F)(F)F)c1)N1CCC(c2nc(-c3ccc(F)cc3)no2)CC1
[6]
  CC50: > 40 µM (active)
Vero
  CC50: 12.6 µM (active)

## CCNc1nc(N)nc(Oc2ccc(OCCOc3ccc(Cl)cc3Cl)nn2)n1
[7]
  EC50: 668 nM (active)
[8]
  EC50: 6.72 µM (active)
[9]
  EC50: > 50 µM (active)

## CC(NCC(O)COc1ccc2ccccc2c1)c1ccccc1 (centres undefined)
Cells [10]
  IC50: > 25 µM (active)
[11]
  IC50: > 96.6 µM (inactive)
[12]
  CC50: 24.1 µM (active)

## Cc1cc(C)c2c(c1)C1C=CCC1C(c1ccc(S(=O)(=O)N3CCOCC3)cc1)N2 (centres undefined)
Cells [10]
  IC50: 11.7 µM (active)
[13]
  IC50: 2.74 µM (active)
[12]
  CC50: 15.6 µM (active)
[14]
  EC50: > 300 µM (not active)
[15]
  EC50: > 300 µM (not active)

## Cc1cc(C)nc(N2CCC(C(=O)O)CC2)n1
[16]
  IC50: > 100 µM (active)

## Nc1ccc(-c2nc3ccc(N)cc3[nH]2)cc1
[11]
  IC50: 46.1 µM (inactive)
Aminopeptidase N
  IC50: 49.9 µM (active)
[17]
  AC50: 2.55 µM (active)

## Cc1ccc(N2C(=O)[C@@H]3[C@H](C2=O)[C@H]2C=CC=NN2[C@@H]3C(=O)Nc2ccc(Cl)cc2)cc1
Protein Tat
  IC50: > 100 µM (active)
[16]
  IC50: > 100 µM (active)
[9]
  EC50: > 50 µM (active)

## Cc1oc(-c2ccc(Cl)cc2)nc1C[S+]([O-])CC(=O)NCCCN1CCN(Cc2ccccc2)CC1 (centres undefined)
[18]
  IC50: > 80 µM (inactive)
[19]
  IC50: 4.34 µM (active)
Galanin receptor type 3
  IC50: 2.03 µM (active)
Cells [2]
  EC50: > 29.9 µM (inactive)
[20]
  AC50: 2.52 µM (active)
[21]
  AC50: 4.29 µM (active)
[22]
  AC50: 1.69 µM (active)

## CCOc1ccc(NC(=O)C2CCCN(S(=O)(=O)c3c(C)n[nH]c3C)C2)cc1 (centres undefined)
[16]
  IC50: > 100 µM (active)

## COC(=O)C1=C(C)N(Cc2ccccc2C(F)(F)F)C(NCc2cccc(C(F)(F)F)c2)=NC1c1ccc(C(F)(F)F)cc1 (centres undefined)
[11]
  IC50: > 96.6 µM (inactive)

## CC(C)C(c1nnnn1Cc1ccccc1)N(CCCO)Cc1cc2cc3c(cc2nc1O)OCO3 (centres undefined)
[9]
  EC50: > 50 µM (active)

## NC(=O)[C@H]1CC2(CC(c3cccc(NC(=O)COc4ccc(Cl)cc4)c3)=NO2)CN1C(=O)c1ccccc1C(=O)c1ccccc1 (some centres undefined)
Cells [10]
  IC50: 24.9 µM (active)
[12]
  CC50: 12.3 µM (active)
